Tested on: candida cultures
Experiment: Heat-treated AmB placed on candida cultures, cleared zone
Assay type: cell-based, Candida albicans
Conditions: heat-treated at various temperatures, examined after 24 h; n=2
Procedure: FIG. 4 illustrates Candida albicans biomass assay: The antifungal properties of 3D printed PCL-PMMA was examined in a biomass assay a. To assess antifungal effects, 3D printed 1, 5 and 10 layered sample were incubated with C. albicans for 48 h and dry weight of their biofilm biomass was assessed. n=3, *p<0.05, T test. b. Electron microscopy of 1 (left), 5 (middle) and 10 (right) layered AmB containing PCL microspheres incorporated PMMA disc. c. AmB was heat-treated at various temperatures and placed on candida cultures and examined after 24 h for efficacy (left panel). Digital images were captured and the cleared zone was quantitated (right panel) n=2, *p<0.05, T test.

SMILES: C[C@@H]1[C@H](O)[C@@H](C)/C=C/C=C/C=C/C=C/C=C/C=C/C=C/[C@H](O[C@@H]2O[C@H](C)[C@@H](O)[C@H](N)[C@@H]2O)C[C@@H]2O[C@](O)(C[C@@H](O)C[C@@H](O)[C@H](O)CC[C@@H](O)C[C@@H](O)CC(=O)O[C@H]1C)C[C@H](O)[C@H]2C(=O)O [AmB, Amphotericin B]
- anti-fungal effects after direct heat treatment: reduced anti-fungal effects

From patent publication US20220160488A1, “FUNCTIONALIZED PROSTHETIC INTERFACES FOR THE PREVENTION AND TREATMENT OF DENTAL CONDITIONS” (OPTIMED TECHNOLOGY, INC., priority 2019, published 2022)
